# pIC50: −log10 of the molar value. Read-outs that look alike come from different tables or passages of the source.
# Key:
# [1] = tested on: LRRK2; assay: LRRK2 degradation in multiple cell lines (summary); type: cell-based
# Source text: Leucine-rich repeat kinase 2 (LRRK2) is one of the most promising targets for Parkinson’s disease.
# [2] = Plasma stability assay; type: in vitro ADME; settings: mouse plasma, 37 °C; read-out: T1/2 in mouse plasma
# Protocol: Frozen plasma was thawed at 37 °C and centrifuged at 3000 rpm for 8 min to remove clots, and the supernatant was used in the experiment. The pH of the plasma was recorded, and only the pH range between 7.4 and 8 was used. The plasma and compound solution were prewarmed to 37 °C. Ten microliters of prewarmed testing compound or reference compound (procaine) solution (20 μM in 0.05 mM sodium phosphate buffer (pH 7.4) with 0.5% BSA) was mixed with 90 μL of plasma at different time points to allow for 5, 15, 30, 45, and 60 min of incubation time. For 0 min, the plasma was mixed with vehicle only. Acetonitrile was added to the compound and plasma mixture to quench the reaction, and the resulting mixture was centrifuged (5594g for 15 min). The supernatant was taken and diluted before LC-MS analysis.
# [3] = Solubility in phosphate buffer and FeSSIF; type: physicochemical
# Protocol: Eight microliters of reference or test compound stock solution (10 mM in DMSO) was added to 792 μL of 100 mM phosphate buffer (pH 7.4) or FeSSIF (pH 5.8). The resulting mixture was shaken for 1 h (1000 rpm) at room temperature and then centrifuged for 10 min (12 000 rpm) to remove the undissolved particles. The supernatant was collected and diluted 10 times and 100 times separately with 100 mM phosphate buffer or FeSSIF. Five microliters of the supernatant samples (no diluted, 10 times diluted, 100 times diluted) were mixed with 95 μL of acetonitrile (containing internal standard) separately before injecting into LC-MS/MS for analysis.
# [4] = Caco-2 cell permeability; type: in vitro ADME; settings: human
# Protocol: Caco-2 cells with transepithelial electrical resistance (TEER) (TEER = (resistance sample – resistance blank) × effective membrane area) = 450 ± 19 Ω cm^2were used for the experiment. Compounds were dissolved in the appropriate buffer (10 mM DMSO stock solutions were diluted with HBSS buffer to a final concentration of 10 μM testing compound and 0.4% DMSO, Lucifer Yellow was introduced in the apical side buffer to test the intactness of the monocell layer) and was applied to the apical or basolateral donor side for measuring A–B or B–A permeability (two replicates), respectively. The apical and basolateral plates were prewarmed to 37 °C before placing the apical plate onto the basolateral plate. After incubating at 37 °C for 90 min, the apical plate and basolateral plate were separated, and the donor or receiver samples were analyzed with UPLC-MS/MS.
# [5] = biological target: T1, LRRK2-NanoLuc (Homo sapiens, UniProt Q5S007); assay: NanoBRET binary LRRK2 binding in HEK293 lysate; settings: compound alone, lysate of HEK293 cells, LRRK2 tracer
# T1 construct: host or cells: HEK293
# Protocol: In the maximum signal control samples (DMSO control), DMSO was added instead of testing compounds.
# T1 sequence (Q5S007 whole entry): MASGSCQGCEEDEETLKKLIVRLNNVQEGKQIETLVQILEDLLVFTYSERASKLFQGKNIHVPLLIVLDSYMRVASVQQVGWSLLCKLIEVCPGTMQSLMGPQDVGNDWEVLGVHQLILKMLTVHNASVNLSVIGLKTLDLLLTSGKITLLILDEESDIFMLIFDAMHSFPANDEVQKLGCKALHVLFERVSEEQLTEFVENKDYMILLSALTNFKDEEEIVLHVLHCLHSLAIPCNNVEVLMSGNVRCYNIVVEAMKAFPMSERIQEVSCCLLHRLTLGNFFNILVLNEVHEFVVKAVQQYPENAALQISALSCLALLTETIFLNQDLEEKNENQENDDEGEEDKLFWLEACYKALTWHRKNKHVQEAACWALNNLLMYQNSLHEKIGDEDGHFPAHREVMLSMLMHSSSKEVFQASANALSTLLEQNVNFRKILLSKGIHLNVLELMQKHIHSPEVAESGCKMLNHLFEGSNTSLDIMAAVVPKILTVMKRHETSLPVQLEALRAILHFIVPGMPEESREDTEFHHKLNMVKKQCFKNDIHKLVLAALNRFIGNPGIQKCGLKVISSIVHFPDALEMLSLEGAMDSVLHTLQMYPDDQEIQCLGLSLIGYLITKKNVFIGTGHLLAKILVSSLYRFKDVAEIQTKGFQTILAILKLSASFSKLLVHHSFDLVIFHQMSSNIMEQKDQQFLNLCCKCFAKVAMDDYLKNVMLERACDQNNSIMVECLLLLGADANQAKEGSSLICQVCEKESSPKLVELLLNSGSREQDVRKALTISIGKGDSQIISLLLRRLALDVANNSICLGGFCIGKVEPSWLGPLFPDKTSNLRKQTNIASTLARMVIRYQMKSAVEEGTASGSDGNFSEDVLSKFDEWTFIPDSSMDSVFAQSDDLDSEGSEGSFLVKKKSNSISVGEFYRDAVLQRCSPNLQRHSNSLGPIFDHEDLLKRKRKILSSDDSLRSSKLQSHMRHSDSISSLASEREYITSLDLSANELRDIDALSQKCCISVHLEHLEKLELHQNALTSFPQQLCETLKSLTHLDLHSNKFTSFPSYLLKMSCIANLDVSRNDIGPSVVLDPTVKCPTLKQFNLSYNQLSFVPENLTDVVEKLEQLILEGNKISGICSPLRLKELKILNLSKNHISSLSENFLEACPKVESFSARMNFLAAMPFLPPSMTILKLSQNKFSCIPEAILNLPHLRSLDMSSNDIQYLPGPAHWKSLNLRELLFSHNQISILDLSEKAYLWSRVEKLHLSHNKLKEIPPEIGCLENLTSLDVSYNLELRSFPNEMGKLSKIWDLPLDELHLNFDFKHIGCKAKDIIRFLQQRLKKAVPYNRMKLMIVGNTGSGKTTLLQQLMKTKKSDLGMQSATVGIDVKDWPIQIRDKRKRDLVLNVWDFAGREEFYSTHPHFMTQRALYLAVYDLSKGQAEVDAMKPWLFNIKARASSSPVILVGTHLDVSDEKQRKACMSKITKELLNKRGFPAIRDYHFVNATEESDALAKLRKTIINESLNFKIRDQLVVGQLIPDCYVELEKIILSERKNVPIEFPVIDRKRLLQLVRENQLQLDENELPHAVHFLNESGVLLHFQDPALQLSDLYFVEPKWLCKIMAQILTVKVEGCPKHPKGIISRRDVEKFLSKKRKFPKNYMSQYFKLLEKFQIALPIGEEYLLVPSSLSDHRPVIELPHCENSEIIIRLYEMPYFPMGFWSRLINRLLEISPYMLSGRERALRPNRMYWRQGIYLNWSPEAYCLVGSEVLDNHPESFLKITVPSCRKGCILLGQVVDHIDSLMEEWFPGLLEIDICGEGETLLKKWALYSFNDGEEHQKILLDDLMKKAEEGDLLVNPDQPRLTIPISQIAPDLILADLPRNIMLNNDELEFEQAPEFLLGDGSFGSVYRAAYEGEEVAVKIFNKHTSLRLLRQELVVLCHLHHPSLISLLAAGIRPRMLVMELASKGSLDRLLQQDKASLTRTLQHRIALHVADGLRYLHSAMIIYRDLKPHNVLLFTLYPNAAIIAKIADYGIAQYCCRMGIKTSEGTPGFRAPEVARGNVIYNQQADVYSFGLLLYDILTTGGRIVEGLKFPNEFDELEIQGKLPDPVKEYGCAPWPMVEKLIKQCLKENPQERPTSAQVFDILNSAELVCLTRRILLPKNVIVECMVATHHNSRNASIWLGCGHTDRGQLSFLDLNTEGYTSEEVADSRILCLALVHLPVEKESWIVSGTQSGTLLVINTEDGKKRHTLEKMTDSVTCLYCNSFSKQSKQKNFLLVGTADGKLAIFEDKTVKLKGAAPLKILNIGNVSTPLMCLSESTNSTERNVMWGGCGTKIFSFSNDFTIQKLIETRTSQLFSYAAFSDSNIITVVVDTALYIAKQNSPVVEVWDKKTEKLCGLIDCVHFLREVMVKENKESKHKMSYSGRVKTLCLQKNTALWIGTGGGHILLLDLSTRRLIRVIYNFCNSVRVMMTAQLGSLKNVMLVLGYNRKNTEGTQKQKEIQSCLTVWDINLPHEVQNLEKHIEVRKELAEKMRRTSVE
smiles,measurement,setting,value
"CNc1nc(Nc2ccc(C(=O)N3CCN(C[C@H]4CC[C@H](CSC(C)(C)[C@H](NC(=O)C5(F)CC5)C(=O)N5C[C@H](O)CC5C(=O)NCc5ccc(-c6scnc6C)cc5)CC4)CC3)cc2OC)ncc1Cl (stereo partly drawn) [XL01126, (2S,4R)-1-((R)-3-((((1R,4R)-4-((4-(4-((5-Chloro-4-(methylamino)pyrimidin-2-yl)amino)-3-methoxybenzoyl)piperazin-1-yl)methyl)cyclohexyl)methyl)thio)-2-(1-fluorocyclopropane-1-carboxamido)-3-methylbutanoyl)-4-hydroxy-N-(4-(4-methylthiazol-5-yl)benzyl)pyrrolidine-2-carboxamide]",DC50,[1],0.014 to 0.072 µM
same,Dmax values,[1],82 to 90%
same,half-life at 2 µM,[2],1.8 h
same,solubility at 1 h,"[3]; 100 mM phosphate buffer, pH 7.4, read-out: solubilities in PBS (pH 7.4)",0.55 µM
same,solubility at 1 h,"[3]; FeSSIF, pH 5.8, read-out: solubility in FeSSIF (pH 5.8)",26.1 µM
same,"Papp A→B at 90 min, 10 µM",[4]; A–B,< 0.74 ×10⁻⁶ cm/s
same,"Papp B→A at 90 min, 10 µM",[4]; B–A,< 1.43 ×10⁻⁶ cm/s
same,pIC50,[5],5.70

# Reference: PMC9501899 (Journal of the American Chemical Society, 2022)
